From patent US10149860B2, “Compositions and methods for treating alzheimer's disease and other tauopathies” (Board of Trustees Of The Leland Stanford Junior University, priority 2013, dated 2018)

Key:
FAF = target: T1, FAF (Drosophila melanogaster, UniProt P55824); assay: Drosophila larval NMJ bouton number after feeding WP1130 in fly food; format: in vivo
T1 construct: Mhc-Gal4>PAR-1 and control Mhc-Gal4/+ animals were fed with fly food containing WP1130 or DMSO alone; endogenous in cells; host or cells: Drosophila third instar larvae (body-wall muscle / NMJ)
T1 sequence (P55824 whole entry, the tested form may be a part): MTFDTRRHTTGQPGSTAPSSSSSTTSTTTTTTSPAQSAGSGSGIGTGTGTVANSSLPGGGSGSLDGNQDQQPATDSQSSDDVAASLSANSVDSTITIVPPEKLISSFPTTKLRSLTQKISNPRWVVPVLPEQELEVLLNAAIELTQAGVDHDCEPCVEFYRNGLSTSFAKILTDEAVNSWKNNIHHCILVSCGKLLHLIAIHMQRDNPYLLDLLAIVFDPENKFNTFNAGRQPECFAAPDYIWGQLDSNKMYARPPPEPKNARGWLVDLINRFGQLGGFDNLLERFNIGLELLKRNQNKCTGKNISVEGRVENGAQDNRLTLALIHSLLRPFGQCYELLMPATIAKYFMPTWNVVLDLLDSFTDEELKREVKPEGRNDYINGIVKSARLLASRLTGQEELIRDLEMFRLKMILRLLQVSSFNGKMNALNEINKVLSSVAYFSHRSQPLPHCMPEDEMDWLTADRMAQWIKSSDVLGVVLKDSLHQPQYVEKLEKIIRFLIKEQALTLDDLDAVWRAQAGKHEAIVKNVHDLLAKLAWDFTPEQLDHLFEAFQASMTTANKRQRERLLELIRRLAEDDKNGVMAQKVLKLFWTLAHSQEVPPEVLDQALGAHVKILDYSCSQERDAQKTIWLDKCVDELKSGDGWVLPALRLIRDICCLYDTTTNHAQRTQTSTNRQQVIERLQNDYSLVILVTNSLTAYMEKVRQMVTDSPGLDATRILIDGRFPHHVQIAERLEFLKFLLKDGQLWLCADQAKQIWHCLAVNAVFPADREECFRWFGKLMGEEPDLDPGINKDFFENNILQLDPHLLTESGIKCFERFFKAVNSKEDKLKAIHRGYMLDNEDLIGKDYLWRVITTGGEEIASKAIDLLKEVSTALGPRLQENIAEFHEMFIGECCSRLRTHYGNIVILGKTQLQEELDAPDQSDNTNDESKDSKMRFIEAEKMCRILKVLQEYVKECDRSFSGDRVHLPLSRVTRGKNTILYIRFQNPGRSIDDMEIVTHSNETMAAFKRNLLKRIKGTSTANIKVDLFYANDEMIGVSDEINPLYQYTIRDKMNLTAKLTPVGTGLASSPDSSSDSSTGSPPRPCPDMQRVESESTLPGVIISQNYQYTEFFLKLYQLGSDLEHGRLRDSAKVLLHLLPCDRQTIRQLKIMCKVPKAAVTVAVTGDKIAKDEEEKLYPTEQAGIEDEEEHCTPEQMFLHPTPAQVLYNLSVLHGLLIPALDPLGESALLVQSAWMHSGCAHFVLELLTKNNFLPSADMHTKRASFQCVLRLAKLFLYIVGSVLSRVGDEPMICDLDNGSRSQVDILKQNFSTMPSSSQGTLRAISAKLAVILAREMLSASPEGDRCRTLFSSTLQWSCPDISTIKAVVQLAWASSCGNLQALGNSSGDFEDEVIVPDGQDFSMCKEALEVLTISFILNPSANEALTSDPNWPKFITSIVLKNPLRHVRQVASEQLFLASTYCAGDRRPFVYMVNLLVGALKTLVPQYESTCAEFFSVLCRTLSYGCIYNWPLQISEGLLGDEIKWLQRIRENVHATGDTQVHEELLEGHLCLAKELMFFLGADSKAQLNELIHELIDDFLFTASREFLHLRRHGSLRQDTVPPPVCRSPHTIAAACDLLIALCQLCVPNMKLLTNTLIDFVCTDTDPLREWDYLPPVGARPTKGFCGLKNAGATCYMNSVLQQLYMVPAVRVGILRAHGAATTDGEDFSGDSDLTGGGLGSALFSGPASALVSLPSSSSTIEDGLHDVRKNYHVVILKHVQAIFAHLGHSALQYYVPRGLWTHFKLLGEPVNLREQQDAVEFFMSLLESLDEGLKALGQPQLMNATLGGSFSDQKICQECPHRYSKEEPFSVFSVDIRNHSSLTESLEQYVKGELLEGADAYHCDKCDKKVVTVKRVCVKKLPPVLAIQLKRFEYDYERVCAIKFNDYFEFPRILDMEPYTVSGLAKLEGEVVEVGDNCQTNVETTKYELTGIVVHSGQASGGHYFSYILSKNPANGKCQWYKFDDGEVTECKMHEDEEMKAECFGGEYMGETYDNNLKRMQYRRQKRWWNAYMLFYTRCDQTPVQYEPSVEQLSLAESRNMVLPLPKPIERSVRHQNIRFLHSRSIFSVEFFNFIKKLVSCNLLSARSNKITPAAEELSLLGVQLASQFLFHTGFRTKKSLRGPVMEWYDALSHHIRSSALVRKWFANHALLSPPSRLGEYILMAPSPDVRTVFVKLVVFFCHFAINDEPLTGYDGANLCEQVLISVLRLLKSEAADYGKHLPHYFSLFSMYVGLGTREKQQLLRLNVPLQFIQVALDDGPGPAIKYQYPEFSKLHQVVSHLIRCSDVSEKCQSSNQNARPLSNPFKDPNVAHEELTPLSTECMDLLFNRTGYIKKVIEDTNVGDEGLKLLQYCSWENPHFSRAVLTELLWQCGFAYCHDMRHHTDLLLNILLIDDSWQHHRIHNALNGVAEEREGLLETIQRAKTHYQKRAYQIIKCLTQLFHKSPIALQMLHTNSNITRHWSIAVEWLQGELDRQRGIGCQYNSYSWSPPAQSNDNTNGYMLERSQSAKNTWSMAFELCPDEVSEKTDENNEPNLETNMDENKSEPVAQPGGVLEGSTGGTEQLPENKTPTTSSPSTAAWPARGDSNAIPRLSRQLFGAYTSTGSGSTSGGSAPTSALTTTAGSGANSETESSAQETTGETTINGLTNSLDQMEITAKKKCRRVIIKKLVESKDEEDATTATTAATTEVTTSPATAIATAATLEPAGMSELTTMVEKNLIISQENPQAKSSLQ
Protocol: For immunohistochemistry, third instar lavae were selected, dissected in PBS, fixed in 4% formaldehyde (Ted Pella) in PBS for about 15 minutes and washed 3× in 0.1% Triton X-100 in PBS. The primary antibodies used were: anti-PAR-1 (1:10,000), anti-phospho-PAR-1 (1:1,000); anti-Slimb (1:1,000); anti-Dlg (4F3) (1:50, Hybridoma bank, University of Iowa); anti-GFP (1:8,000, Abcam); anti-dtau (1:3). Primary antibody incubation was performed at 4° C. overnight. All secondary antibodies (Molecular Probes) and Texas Red or FITC-conjugated anti-HRP (Jackson ImmunoResearch Laboratories) were used at 1:200 and incubated for about 2 hours at room temperature. Laval preparations were mounted in SlowFade Antifade kit (Invitrogen). Confocal images were collected from Leica confocal microscopes SP2 and SP5 equipped with 40× or 100× inverted NX oil lens. Leica Application Suite Advanced Fluorescence software was used to capture, process and analyze images. Analysis of the NMJ was performed essentially as described^51. All crosses for genetic interaction studies in the NMJ were performed at 25° C.
(§1) Either WP1130 (Selleck Chemicals) or DMSO (Sigma) was added to fly food at 2, 5 or 10 μM concentrations. Feeding third instar larvae were collected from the drug-containing food and dissected in PBS. Besides Mhc-GAL4>UAS-APP, which were raised at 29° C., all flies were raised at 25° C.
Fly eye sizes were measured on multiple samples (n>15) from both control and experimental genotypes using the NIH ImageJ software. Average eye size was presented as a normalized percentage of control eye size. We performed two-tailed unpaired Student's t-test to analyze the significance of differences between two groups. Quantification of NMJ bouton number was performed according to previously described protocols (Lee et al., 2010). NMJ bouton number is normalized by muscle area at muscle 6/7 in abdominal segment A3. The experimental genotypes were normalized relative to the control genotype.
To investigate whether WP1130 may act as an inhibitor of FAF to control PAR-1 activity in vivo, Mhc-Gal4>PAR-1 and control Mhc-Gal4/+ animals were fed with fly food containing WP1130 or DMSO alone. […] Given the potent effect of WP1130 in modulating PAR-1 protein level, whether WP1130 would affect the phosphorylation of tau was tested.
(a) Quantification of the pharmacological effect of WP1130 on the total number of boutons on muscle 6/7 of A3, after normalization with bouton area. Indicated genotype flies were incubated with 0, 2, 5 or 10 μM concentrations of WP1130. (b) Western blot analyses showing the effects of WP1130 (10 μM) on PAR-1-Myc levels in third instar larvae body-wall muscle extracts. Values represent normalized PAR-1-Myc levels. Actin serves as loading control. (c) Quantification of NMJ bouton number showing rescue by WP1130 (10 μM) of the bouton-loss phenotypes induced by Mhc-Gal4>UAS-htauM or Mhc-Gal4>UAS-htauM+UAS-PAR-1. (d) Western blot analysis showing reduced 12E8-positive htauM level by WP1130 (10 μM). Values represent normalized 12E8-positive htauM levels. Actin serves as loading control. (e) Quantification of NMJ bouton number showing rescue by WP1130 (10 μM) of the bouton-loss phenotypes induced the expression APP/Aβ-42. (f) A model depicting possible signaling pathways linking APP/Aβ-42 to synaptic dysfunction and synapse loss seen in AD. Dashed lines indicate potential direct regulations.

PAR-1 = assay: Western blot of PAR-1-Myc levels in third instar larvae body-wall muscle extracts; format: in vivo, Drosophila; conditions: Mhc-Gal4>PAR-1 larvae; WP1130 10 μM vs DMSO; FIG. 26b
Protocol: (§2) For Western blot analysis, the primary antibodies used were: anti-PAR-1 (1:8,000), anti-phospho-PAR-1 (1:1,000); anti-HA (1:2,000, Sigma); anti-Myc (1:1,000, Millipore); anti-GFP (1:2,000, Abcam); anti-Dlg (4F3) (1:1,000, Hybridoma bank, University of Iowa); 12E8 (1:8,000); anti-Actin (1:40,000, Sigma); anti-Gapdh (1:3,000, Abcam).
as §1
(§3) To investigate whether WP1130 may act as an inhibitor of FAF to control PAR-1 activity in vivo, Mhc-Gal4>PAR-1 and control Mhc-Gal4/+ animals were fed with fly food containing WP1130 or DMSO alone. […]
(§4) (a) Quantification of the pharmacological effect of WP1130 on the total number of boutons on muscle 6/7 of A3, after normalization with bouton area. […] (c) Quantification of NMJ bouton number showing rescue by WP1130 (10 μM) of the bouton-loss phenotypes induced by Mhc-Gal4>UAS-htauM or Mhc-Gal4>UAS-htauM+UAS-PAR-1. […] (e) Quantification of NMJ bouton number showing rescue by WP1130 (10 μM) of the bouton-loss phenotypes induced the expression APP/Aβ-42. […]

[1] = system: htau phosphorylation at 12E8 sites; assay: Western blot of 12E8-positive htauM level in WP1130-fed flies; format: in vivo, Drosophila; conditions: WP1130 10 μM vs DMSO; FIG. 26d
Protocol: as §2, §1, §3, §4

MARK4 [2] = assay: Western blot of MARK4 stability in HEK 293T cells transfected with hMARK4-HA; format: cell-based, human; conditions: HEK 293T cells with hMARK4-HA; 5 μM WP1130 for 8 h; FIG. 25a
Protocol: (§5) HEK 293T cells transfected with the hMARK4-HA plasmids were treated with 5 μM WP1130 for 8 h and subsequently used for western blot analysis. Actin serves as loading control. […] Cultured HEK 293T cells were treated with 0, 2, 5 and 10 μM WP1130 for 12 h, and used for western blot analysis. Actin serves as loading control.

[3] = system: endogenous tau phosphorylation at the MARK sites; assay: Western blot of endogenous tau phosphorylation (12E8 antibody) in HEK 293T cells; format: cell-based, human; conditions: 0, 2, 5 and 10 μM WP1130 for 12 h, FIG. 25b
Protocol: as §5

MARK4 [4] = assay: Western blot of MARK4 in brain extracts of PS19 tauopathy mice after ICV infusion; format: in vivo; conditions: relative to vehicle controls, FIG. 27
Protocol: (§6) To test the effects of WP1130 in a mammalian model of AD, the drug was administered to Tauopathy mice (PS19) expressing the pathogenic P301S human tau transgene. Mice received intracerebroventricular (ICV) infusion of either WP1130 or vehicle controls and MARK4 and p-Tau levels were assessed by western blot. […] Tauopathy mice (PS19) expressing the pathogenic P301S human tau transgene were treated with vehicle (#1, 2, 4, 6, 12) or WP1130 (#5, 8, 13, 14, 15) by intracerebroventricular (ICV) infusion, and brain extracts were subjected to Western blot analysis with the indicated antibodies. Actin serves as a loading control, and T14 anti-Tau antibody measures levels of total tau. Note the reduction of MARK4 and p-Tau (S262) protein levels by drug treatment.

[5] = system: tau phosphorylation at the PAR-1/MARK target site (S262); assay: Western blot of p-Tau (S262) in brain extracts of PS19 tauopathy mice after ICV infusion; format: in vivo; conditions: relative to vehicle controls, FIG. 27
Protocol: as §6

PS19 mice = assay: Passive avoidance test in PS19 tauopathy mice; format: in vivo; conditions: WP1130-treated PS19 mice vs wt and vehicle treated PS19 mice; FIG. 28
Protocol: The passive avoidance test was used to test whether WP1130 could rescue the learning and memory deficits expressed in the PS19 mice. During training, the animals were subjected to electric shock on the foot in the dark chamber. During testing, the trained animals were placed in the light chamber and the time it took the animals to enter the dark chamber (latency time) was recorded. […] (Top) A diagram showing the passive-avoidance test, in which animals were allow to freely moving between the light and dark chambers during habituation. During training, the animals were subjected to electric shock on the foot in the dark chamber. During testing, the trained animals were placed in the light chamber and the time it took the animals to enter the dark chamber (latency time) was recorded. (Bottom) Statistical analysis of the latency times of vehicle-treated WT control, vehicle-treated PS19 tauopathy mice, and drug-treated PS19 tauopathy during the habituation, training, and testing periods. ** indicates P<0.01 in Student's t-test.

bouton-loss phenotype caused by the co-expression of PAR-1 and htauM (FAF; Mhc-Gal4>UAS-htauM+UAS-PAR-1, WP1130 10 μM vs DMSO, FIG. 26c): partially suppressed | synaptic-loss phenotype caused by postsynaptic co-expression of FAF and Slimb-ΔF (FAF; WP1130 in fly food vs DMSO, FIG. 26a): blocked synaptic-loss phenotype | bouton-loss phenotype induced by Mhc-Gal4>UAS-htauM (FAF; htauM alone, WP1130 10 μM, FIG. 26c): rescue
Compound: CCC[C@H](NC(=O)/C(C#N)=C/c1cccc(Br)n1)c1ccccc1 [WP1130, (S,E)-3-(6-bromopyridin-2-yl)-2-cyano-N-(1-phenylbutyl)acrylamide]
loss of NMJ bouton number caused by overexpression of PAR-1 (FAF; Mhc-Gal4>PAR-1 larvae, WP1130 in fly food at 0, 2, 5 or 10 μM vs DMSO, FIG. 26a): highly effective in preventing the loss of NMJ bouton number | bouton-loss phenotype caused by the postsynaptic toxicity of APP/Aβ-42 (FAF; WP1130 10 μM, FIG. 26e): effectively suppressed | PAR-1 protein level (PAR-1): reducing PAR-1 protein level | htau phosphorylation at 12E8 sites [1]: dramatically decreased | stability of MARK4 (MARK4 [2]): decreases the stability of MARK4 | endogenous tau phosphorylation at the MARK sites (12E8 antibody) [3]: decreased endogenous tau phosphorylation | MARK4 level (MARK4 [4]): significantly reduced | phosphorylated tau level [5]: significantly reduced | latency time to enter the dark chamber (PS19 mice): latency times comparable to that of wt
